# Reference: BindingDB's records for patent US11964973 (Bristol-Myers Squibb, 2024)
# Tests used:
# [1] = target: Diacylglycerol kinase zeta (Homo sapiens, UniProt Q13574); test: In Vitro DGK Inhibition Assay
# Experimental: (§1) The DGKα and DGKζ reactions were performed using either extruded liposome (DGKα and DGKζ LIPGLO assays). […] Luminescence was recorded using an EnVision microplate reader.
# [2] = target: Diacylglycerol kinase alpha (Homo sapiens, UniProt P23743); test: In Vitro DGK Inhibition Assay
# Chain of Diacylglycerol kinase alpha (P23743 whole entry): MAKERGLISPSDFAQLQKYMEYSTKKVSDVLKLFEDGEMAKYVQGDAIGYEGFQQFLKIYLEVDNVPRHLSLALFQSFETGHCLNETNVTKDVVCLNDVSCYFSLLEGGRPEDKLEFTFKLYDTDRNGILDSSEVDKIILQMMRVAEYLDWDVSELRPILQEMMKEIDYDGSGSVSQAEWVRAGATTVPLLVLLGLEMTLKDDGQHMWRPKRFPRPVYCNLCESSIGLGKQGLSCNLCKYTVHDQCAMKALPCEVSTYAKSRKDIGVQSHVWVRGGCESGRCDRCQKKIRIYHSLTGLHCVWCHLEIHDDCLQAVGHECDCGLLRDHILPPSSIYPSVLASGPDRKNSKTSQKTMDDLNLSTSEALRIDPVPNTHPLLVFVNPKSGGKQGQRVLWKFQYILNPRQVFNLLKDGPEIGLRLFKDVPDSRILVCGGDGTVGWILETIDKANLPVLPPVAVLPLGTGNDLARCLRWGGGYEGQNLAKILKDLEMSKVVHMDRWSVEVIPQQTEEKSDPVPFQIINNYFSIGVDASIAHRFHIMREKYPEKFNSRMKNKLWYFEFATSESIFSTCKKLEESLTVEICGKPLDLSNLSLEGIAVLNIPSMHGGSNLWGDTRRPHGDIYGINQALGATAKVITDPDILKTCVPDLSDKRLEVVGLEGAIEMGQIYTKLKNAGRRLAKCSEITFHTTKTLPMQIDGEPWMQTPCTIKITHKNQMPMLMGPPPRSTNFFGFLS
# Experimental: as §1
# Chain of Diacylglycerol kinase zeta (Q13574 as listed by the source): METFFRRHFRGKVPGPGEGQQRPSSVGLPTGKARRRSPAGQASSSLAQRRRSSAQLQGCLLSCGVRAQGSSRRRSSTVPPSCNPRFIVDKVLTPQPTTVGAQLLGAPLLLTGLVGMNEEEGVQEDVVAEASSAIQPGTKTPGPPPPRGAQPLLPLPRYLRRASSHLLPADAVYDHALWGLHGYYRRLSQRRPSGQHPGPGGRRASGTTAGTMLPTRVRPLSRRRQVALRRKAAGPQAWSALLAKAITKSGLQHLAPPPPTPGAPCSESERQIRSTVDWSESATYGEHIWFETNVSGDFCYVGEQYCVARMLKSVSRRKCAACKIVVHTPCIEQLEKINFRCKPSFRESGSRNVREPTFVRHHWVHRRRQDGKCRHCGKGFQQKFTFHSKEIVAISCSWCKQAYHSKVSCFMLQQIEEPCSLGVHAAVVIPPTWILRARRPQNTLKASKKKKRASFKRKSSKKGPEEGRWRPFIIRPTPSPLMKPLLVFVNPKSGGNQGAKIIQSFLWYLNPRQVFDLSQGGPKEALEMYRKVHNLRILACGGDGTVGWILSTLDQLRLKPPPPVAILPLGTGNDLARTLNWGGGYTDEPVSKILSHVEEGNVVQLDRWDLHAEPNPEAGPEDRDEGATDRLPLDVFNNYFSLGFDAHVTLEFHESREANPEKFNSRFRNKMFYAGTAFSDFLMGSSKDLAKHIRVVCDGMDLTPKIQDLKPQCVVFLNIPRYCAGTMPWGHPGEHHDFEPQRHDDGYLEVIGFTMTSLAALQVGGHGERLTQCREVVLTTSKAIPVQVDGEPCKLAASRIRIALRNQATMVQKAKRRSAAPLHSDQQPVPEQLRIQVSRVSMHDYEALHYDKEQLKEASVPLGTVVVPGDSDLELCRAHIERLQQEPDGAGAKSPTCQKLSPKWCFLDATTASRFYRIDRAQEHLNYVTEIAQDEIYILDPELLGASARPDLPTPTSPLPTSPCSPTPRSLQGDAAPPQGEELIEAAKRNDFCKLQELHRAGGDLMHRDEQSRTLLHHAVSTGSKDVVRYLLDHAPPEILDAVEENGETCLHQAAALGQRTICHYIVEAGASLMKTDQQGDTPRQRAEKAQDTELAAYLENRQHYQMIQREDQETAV
Compound,IC50 [1],IC50 [2]
"CCO[C@H]1CN(c2cc(=O)n(C)c3ccc(C#N)nc23)CC[C@@H]1Oc1ccc(OC(C)C)cn1 (relative stereo) [US11964973, Example 397]",420 nM,
"Cn1c(=O)cc(N2CCC(Oc3ccc(C(C)(C)C)cc3)CC2)c2cc(C#N)ccc21 [US11964973, Example 53]",2000 nM,770 nM
